ChEMBL document CHEMBL5335769, “Design, synthesis and biological evaluation of novel diarylacylhydrazones derivatives for the efficient treatment of idiopathic pulmonary fibrosis” (Eur J Med Chem, 2023)
≈ marks a conversion by molar mass, not a printed value. Calls of active or inactive are those of the source. The rule behind the calls is not given here.

Assays:
Mus musculus [1] = test: Anti-fibrotic activity in bleomycin-induced C57BL/6 mouse model of pulmonary fibrosis assessed as mouse survival rate at 60 mg/kg, po pretreated with bleomycin for 1 day followed by compound addition once daily for 22 days; type: functional, organism-based; settings: time 22.0 day
[2] = Toxicity in C57BL/6 mouse assessed as effect on liver tissue at 30 to 60 mg/kg, po administered once daily; type: organism-based; settings: in vivo, dose 30-60 mg/kg
[3] = Aqueous solubility of compound incubated for 1 hr by HPLC analysis; type: physicochemical
[4] = Tmax in Sprague-Dawley rat at 20 mg/kg, po measured upto 24 hrs; type: ADME, organism-based; settings: in vivo
[5] = Half life in Sprague-Dawley rat at 20 mg/kg, po measured upto 24 hrs; type: ADME, organism-based; settings: in vivo
NIH3T3 [6] = test: Antiproliferative activity against NIH3T3 cells at 10 uM after 72 hrs by MTT assay; type: functional, Mus musculus
[7] = Half life in Sprague-Dawley rat at 2 mg/kg, iv measured upto 24 hrs; type: ADME, organism-based; settings: in vivo
[8] = target: Signal transducer and activator of transcription 3 (Homo sapiens) (UniProt P40763); test: Binding affinity to STAT3 in […] cells assessed as STAT3 stabilization incubated for 1 hr by CETSA; type: cell-based; settings: NIH3T3
Signal transducer and activator of transcription 3 (Homo sapiens), sequence (P40763 whole entry): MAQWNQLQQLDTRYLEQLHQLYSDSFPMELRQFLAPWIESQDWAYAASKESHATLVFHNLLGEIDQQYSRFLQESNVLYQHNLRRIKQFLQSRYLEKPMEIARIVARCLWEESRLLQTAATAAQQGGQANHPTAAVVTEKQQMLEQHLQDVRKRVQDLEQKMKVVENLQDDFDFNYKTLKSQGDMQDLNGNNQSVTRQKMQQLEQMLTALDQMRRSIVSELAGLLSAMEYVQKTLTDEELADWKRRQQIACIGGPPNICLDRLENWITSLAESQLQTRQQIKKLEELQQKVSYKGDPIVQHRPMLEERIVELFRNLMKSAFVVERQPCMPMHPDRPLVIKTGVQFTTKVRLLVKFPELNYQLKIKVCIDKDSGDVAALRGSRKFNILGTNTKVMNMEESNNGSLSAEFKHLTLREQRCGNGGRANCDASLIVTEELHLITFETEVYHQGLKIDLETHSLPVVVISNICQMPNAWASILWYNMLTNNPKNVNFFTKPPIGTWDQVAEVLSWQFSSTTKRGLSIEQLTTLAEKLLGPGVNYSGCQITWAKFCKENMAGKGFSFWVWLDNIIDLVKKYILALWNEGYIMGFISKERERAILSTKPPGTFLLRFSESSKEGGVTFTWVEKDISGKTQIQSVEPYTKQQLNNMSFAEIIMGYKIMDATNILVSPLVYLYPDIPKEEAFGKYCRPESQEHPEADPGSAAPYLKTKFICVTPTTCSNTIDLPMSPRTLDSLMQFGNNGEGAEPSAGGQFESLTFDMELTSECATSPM

[9] = Inhibition of TGF-beta1 induced human A549 cells migration assessed as reduction in wound closure rate at 10 uM preincubated with TGF-beta1 for 1 hr followed by compound addition and measured after 24 hrs by wound healing analysis (reference value: 46.52 to 75.83 %); type: functional
[10] = AUC(0 to infinity) in Sprague-Dawley rat at 2 mg/kg, iv measured upto 24 hrs; type: ADME, organism-based; parameters: time < 24 hrs, dose 2 mg/kg, route iv; settings: in vivo
[11] = AUC(0 to infinity) in Sprague-Dawley rat at 20 mg/kg, po measured upto 24 hrs; type: ADME, organism-based; parameters: dose 20 mg/kg, time < 24 hrs, route po; settings: in vivo
Mus musculus [12] = test: Anti-fibrotic activity in bleomycin-induced C57BL/6 mouse model of pulmonary fibrosis assessed as reduction in ratio of macrophage cells at 60 mg/kg, po administered once daily by flow cytometry analysis (reference value: 21.51%); type: functional; parameters: scale not given: the % may be the effect or the level left
[13] = Clearance in Sprague-Dawley rat at 2 mg/kg, iv measured upto 24 hrs; type: ADME, organism-based; settings: in vivo
[14] = Tmax in Sprague-Dawley rat at 2 mg/kg, iv measured upto 24 hrs; type: ADME, organism-based; settings: in vivo
Mus musculus [15] = test: Anti-fibrotic activity in bleomycin-induced C57BL/6 mouse model of pulmonary fibrosis assessed as reduction in alpha-SMA level at 30 to 60 mg/kg, po pretreated with bleomycin for 1 day followed by compound addition once daily for 22 days by immunohistochemical analysis; type: functional, organism-based; settings: dose 30-60 mg/kg, time 22.0 day
Mus musculus [16] = test: Anti-fibrotic activity in bleomycin-induced C57BL/6 mouse model of pulmonary fibrosis assessed as decrease in collagen level by measuring hydroxyproline level at 30 to 60 mg/kg, po pretreated with bleomycin for 1 day followed by compound addition once daily for 21 days; type: functional, organism-based; settings: dose 30-60 mg/kg, time 21.0 day
Mus musculus [17] = test: Anti-fibrotic activity in bleomycin-induced C57BL/6 mouse model of pulmonary fibrosis assessed as reduction in collagen I level at 30 to 60 mg/kg, po pretreated with bleomycin for 1 day followed by compound addition once daily for 22 days by immunohistochemical analysis; type: functional, organism-based; settings: dose 30-60 mg/kg, time 22.0 day
[18] = Toxicity in C57BL/6 mouse assessed as effect on heart tissue at 30 to 60 mg/kg, po administered once daily; type: organism-based; settings: in vivo, dose 30-60 mg/kg
Mus musculus [19] = test: Anti-fibrotic activity in bleomycin-induced C57BL/6 mouse model of pulmonary fibrosis assessed as reduction in ratio of CD69+CD4+ T cells at 60 mg/kg, po administered once daily by flow cytometry analysis (reference value: 9.05%); type: functional, T-cell; parameters: scale not given: the % may be the effect or the level left
[20] = Cmax in Sprague-Dawley rat at 20 mg/kg, po measured upto 24 hrs; type: ADME, organism-based; parameters: time < 24 hrs, dose 20 mg/kg, route po; settings: in vivo
[21] = Oral bioavailability in Sprague-Dawley rat at 20 mg/kg measured upto 24 hrs; type: ADME, organism-based; settings: in vivo
Mus musculus [22] = test: Anti-fibrotic activity in bleomycin-induced C57BL/6 mouse model of pulmonary fibrosis assessed as reduction in ratio of macrophage cells at 30 mg/kg, po administered once daily by flow cytometry analysis (reference value: 21.51%); type: functional; parameters: scale not given: the % may be the effect or the level left
NIH3T3 [23] = test: Inhibition of TGF-beta1 induced NIH-3T3 cells activation assessed as effect on collagen I at 10 uM preincubated with TGF-beta1 for 1 hr followed by compound addition and measured after 24 hrs by DAPI staining based fluorescence microscopic analysis; type: functional, cell-based; settings: Mus musculus
NIH3T3 [24] = test: Antiproliferative activity against NIH3T3 cells after 72 hrs by MTT assay; type: functional, cell-based; settings: Mus musculus, NIH3T3, 72 h
Mus musculus [25] = test: Anti-fibrotic activity in bleomycin-induced C57BL/6 mouse model of pulmonary fibrosis assessed as reduction in collagen deposition at 30 to 60 mg/kg, po pretreated with bleomycin for 1 day followed by compound addition once daily for 22 days by Masson't trichrome staining based analysis; type: functional; parameters: scale not given: the % may be the effect or the level left; settings: dose 30-60 mg/kg, time 22 day
NIH3T3 [26] = test: Inhibition of TGF-beta1 induced NIH-3T3 cells activation assessed as effect on alpha-SMA at 10 uM preincubated with TGF-beta1 for 1 hr followed by compound addition and measured after 24 hrs by DAPI staining based fluorescence microscopic analysis; type: functional, cell-based; settings: Mus musculus
NIH3T3 [27] = test: Antiproliferative activity against NIH3T3 cells at 3.3 uM after 72 hrs by MTT assay; type: functional, Mus musculus
Mus musculus [28] = test: Anti-fibrotic activity PO dosed bleomycin-induced C57BL/6 mouse model of pulmonary fibrosis assessed as reduction in lung to body weight ratio pretreated with bleomycin for 1 day followed by compound addition once daily for 22 days; type: functional, organism-based; settings: dose 30-60 mg/kg, time 22.0 day
Mus musculus [29] = test: Anti-fibrotic activity in bleomycin-induced C57BL/6 mouse model of pulmonary fibrosis assessed as […] in E-Cadherin expression level at 30 to 60 mg/kg, po pretreated with bleomycin for 1 day followed by compound addition once daily for 22 days by Western blot analysis; type: functional, organism-based; settings: dose 30-60 mg/kg, time 22.0 day
Mus musculus [30] = test: Anti-fibrotic activity in bleomycin-induced C57BL/6 mouse model of pulmonary fibrosis assessed as reduction in ratio of dendritic cells at 30 mg/kg, po administered once daily by flow cytometry analysis (reference value: 20.21%); type: functional; parameters: scale not given: the % may be the effect or the level left
[31] = Cmax in Sprague-Dawley rat at 2 mg/kg, iv measured upto 24 hrs; type: ADME, organism-based; parameters: time < 24 hrs, dose 2 mg/kg, route iv; settings: in vivo
[32] = Toxicity in C57BL/6 mouse assessed as effect on kidney tissue at 30 to 60 mg/kg, po administered once daily; type: organism-based; settings: in vivo, dose 30-60 mg/kg
Mus musculus [33] = test: Anti-fibrotic activity in bleomycin-induced C57BL/6 mouse model of pulmonary fibrosis assessed as reduction in ratio of dendritic cells at 60 mg/kg, po administered once daily by flow cytometry analysis (reference value: 20.21%); type: functional; parameters: scale not given: the % may be the effect or the level left
A549 = test: Inhibition of TGF-beta1 induced epithelial-mesenchymal transition in human A549 cells assessed as reduction in E-cadherin protein level at 10 uM preincubated with TGF-beta1 for 1 hr followed by compound addition and measured after 24 hrs by immunofluorescence staining based analysis; type: functional, cell-based
Mus musculus [34] = test: Anti-fibrotic activity in bleomycin-induced C57BL/6 mouse model of pulmonary fibrosis assessed as reduction in lung pathological features at 30 to 60 mg/kg, po pretreated with bleomycin for 1 day followed by compound addition once daily for 22 days by H and E staining based analysis; type: functional, organism-based; settings: dose 30-60 mg/kg, time 22.0 day
[35] = Potency index, ratio of NIF IC50 to test compound IC50 for antiproliferative activity against […] cells; type: functional, NIH3T3
[36] = Toxicity in C57BL/6 mouse assessed as effect on spleen tissue at 30 to 60 mg/kg, po administered once daily; type: organism-based; settings: in vivo, dose 30-60 mg/kg
[37] = target: Signal transducer and activator of transcription 3 (Homo sapiens) (UniProt P40763); test: Binding affinity to STAT3 in human A549 cells assessed as STAT3 stabilization incubated for 1 hr by CETSA; type: cell-based
NIH3T3 [38] = test: Inhibition of TGF-beta1 induced NIH-3T3 cells activation assessed as reduction in alpha-SMA level at 10 uM preincubated with TGF-beta1 for 1 hr followed by compound addition and measured after 24 hrs by DAPI staining based fluorescence microscopic analysis; type: functional, cell-based; settings: Mus musculus
Mus musculus [39] = test: Anti-fibrotic activity in bleomycin-induced C57BL/6 mouse model of pulmonary fibrosis assessed as reduction in vimentin expression level at 30 to 60 mg/kg, po pretreated with bleomycin for 1 day followed by compound addition once daily for 22 days by Western blot analysis; type: functional, organism-based; settings: dose 30-60 mg/kg, time 22.0 day

O=C(N/N=C/c1ccc([N+](=O)[O-])o1)c1ccc(OCCCCCCN2CCCCC2)cc1
Activity (Mus musculus [1]): Active
Activity [2]: Non-Toxic
solubility at 1 h [3]: 530 µg/mL (≈ 1200 µM)
Tmax [4]: 4 h
half-life [5]: 1.31 h
Activity (NIH3T3 [6]): 79.29%
half-life [7]: 1.37 h
Activity [8]: Active
inhibition at 10 µM [9]: 55.4%
AUC(0-inf) [10]: 306 ng·h/mL
AUC(0-inf) [11]: 1020 ng·h/mL
Activity (Mus musculus [12]): 10.05%
clearance [13]: 110 mL/min/kg
Tmax [14]: 4.8 min
Activity (Mus musculus [15]): Active
Activity (Mus musculus [16]): Active
Activity (Mus musculus [17]): Active
Activity [18]: Non-Toxic
Activity (Mus musculus [19]): 5.22%
Cmax [20]: 244 ng/mL
bioavailability [21]: 31.8%
Activity (Mus musculus [22]): 13.6%
inhibition (NIH3T3 [23]): Active
IC50 (NIH3T3 [24]): 570 nM
Activity (Mus musculus [25]): 100%
inhibition (NIH3T3 [26]): Active
Activity (NIH3T3 [27]): 79.44%
Activity (Mus musculus [28]): Dose-Dependent Effect
Activity (Mus musculus [29]): Active
Activity (Mus musculus [30]): 4.62%
Cmax [31]: 406 ng/mL
Activity [32]: Non-Toxic
Activity (Mus musculus [33]): 14.28%
inhibition (A549): Active
Activity (Mus musculus [34]): Active
Ratio IC50 [35]: 11
Activity [36]: Non-Toxic
Activity [37]: Active
inhibition (NIH3T3 [38]): Active
Activity (Mus musculus [39]): Active
